Like-named read-outs stand apart in the source and are kept apart here.

One assay relates to Aspergillus oryzae TKK-4. Kind of assay: Effect of furfural on microbial growth, flask cultivation (Example 7). The class given is cell-based. Particulars: for DW (dry weight concentration): after 6 days of cultivation. The protocol:
(§1) Two fungal strains Aspergillus oryzae TKK-4 and Mortierella isabellina TKK-1 and one yeast strain Lipomyces starkeyi TKK-1 were cultivated in flasks in a standard medium (Table 12) with furfural addition. The microorganisms were grown for 6 days in 28° C. with 160 rpm (for fungi) and 250 rpm (for yeast). Cellulose was added to help the fungus grow with a better morphology. Furfural was added in different amounts into the medium (0-4 g/l) and the growth of the microorganisms was observed.

The subject of assay [1] is Mortierella isabellina TKK-1. The description is as above. Type of assay: cell-based. The conditions noted are these: for DW (dry weight concentration): after 6 days of cultivation. The protocol:
as §1

In another assay the test system is Lipomyces starkeyi TKK-1. Described as above. Type of assay: cell-based. The conditions noted are these: for DW (dry weight concentration): after 6 days of cultivation. The protocol:
as §1

The subject of a further assay is Aspergillus. oryzae. The conditions noted are these: 5 days, 28 C. Here is the method: The experiments were done using a lipid producing fungal strain Aspergillus. oryzae. From the sporulating fungus grown on PDA-plates a spore suspension was made by adding 12 ml of sterile water and the spores were scraped off with inoculation loop to the liquid. The spore suspension was used for media inoculation.
All of them contained these basic nutrients, and small amount of fine cellulose to prevent the fungus from clumping.
The organic acids were added in so the concentration of the formic and acetic acid alone was 0, 1, 3, 5 and 7 g/l, and for the two acids together 0, 1, 3, 5, 7 and 9 g/l. After this the pH of the media was adjusted to 5.5-6.0 using 3 M NaOH. The medium was distributed to 50 ml batches into 250 ml erlenmayer flasks. The media was sterilized in autoclave 121 C 15 min. After cooling down, each flask was inoculated using 0.5 ml spore suspension mentioned earlier. For each concentration, parallel cultivations were made. The cultivations were incubated in 160 rpm shaking at 28 C 5 days. The growth was observed daily with a microscope, and in the end of the cultivation the biomass and lipid contents were determined.
The biomass content was determined by vacuum filtering the whole content of the flask and washing the biomass with 50 ml of distilled water. After this the biomass cakes were frozen and dried overnight in freeze dryer. From the dries biomass the lipid content was analyzed according to Suutari et al. (1990). The lipids in the samples were first hydrolysed into free fatty acids, which were saponified into sodium salts thereof and thereafter methylated into methyl esters. The fatty methyl esters were analysed gas chromatographically.

`O=Cc1ccco1` [Furfural]: the “Furfural concentration in which the microbe grew” value was 0.5 g/L in the assay on Aspergillus oryzae TKK-4 (after one week) and 1.2 g/L with Lipomyces starkeyi TKK-1 (after a few days). The “Furfural concentration that inhibited the growth completely” value with Aspergillus oryzae TKK-4 (after one week) was not below 0.75 g/L. Besides, the “DW (dry weight concentration)” value in the assay with Aspergillus oryzae TKK-4 (furfural 0.1 g/l) is 18.18 g/L; in the assay with Aspergillus oryzae TKK-4 (furfural 0.2 g/l), 16.54 g/L; in the assay with Aspergillus oryzae TKK-4 (furfural 0.3 g/l), 13.53 g/L; in the assay with Aspergillus oryzae TKK-4 (furfural 0.4 g/l), 11.58 g/L; in assay [1] (furfural 0.2 g/l) it was 7.02 g/L; in assay [1] (furfural 0.4 g/l), 13.80 g/L. The “DW (dry weight concentration)” value in assay [1] (furfural 0.6 g/l) was found to be 14.96 g/L; in assay [1] (furfural 0.8 g/l) it was 9.28 g/L; with Lipomyces starkeyi TKK-1 (furfural 0.6 g/l), 14.79 g/L; in the assay with Lipomyces starkeyi TKK-1 (furfural 1.2 g/l) it was 14.39 g/L. In addition, in assay [1], the “Furfural concentration in which the microbe did not grow” value is not below 1 g/L. Also, in assay [1] (after 4-6 days), the “Furfural concentration in which some growth was observed” value is 0.8 g/L. Besides, the “Inhibiting concentration of furfural” value in the assay with Lipomyces starkeyi TKK-1 was not below 1.8 g/L.
In the case of `CC(=O)O` [Acetic acid, acetic acid], the Biomass concentration with Aspergillus. oryzae (acid concentration 1 g/l) came to 12.4 g/L; in the assay with Aspergillus. oryzae (acid concentration 3 g/l), 11.4 g/L; in the assay with Aspergillus. oryzae (acid concentration 5 g/l), 11.1 g/L; in the assay with Aspergillus. oryzae (acid concentration 7 g/l), 11.5 g/L. The Lipid content in the assay on Aspergillus. oryzae (acid concentration 1 g/l) came to 19.8 % from cell dry weight; with Aspergillus. oryzae (acid concentration 3 g/l), 20.7 % from cell dry weight; in the assay on Aspergillus. oryzae (acid concentration 5 g/l), 21.2 % from cell dry weight; with Aspergillus. oryzae (acid concentration 7 g/l) it was 24.3 % from cell dry weight.
For `O=CO` [Formic acid, formic acid], the Biomass concentration in the assay on Aspergillus. oryzae (acid concentration 1 g/l) stood at 12.5 g/L; in the assay on Aspergillus. oryzae (acid concentration 3 g/l), 12.0 g/L; in the assay on Aspergillus. oryzae (acid concentration 5 g/l) it was 11.2 g/L; with Aspergillus. oryzae (acid concentration 7 g/l), 10.9 g/L. For the same compound, the Lipid content in the assay with Aspergillus. oryzae (acid concentration 1 g/l) was 19.5 % from cell dry weight; with Aspergillus. oryzae (acid concentration 3 g/l) it was 19.5 % from cell dry weight; in the assay with Aspergillus. oryzae (acid concentration 5 g/l) it was 15.9 % from cell dry weight; in the assay with Aspergillus. oryzae (acid concentration 7 g/l) it was 19.8 % from cell dry weight.
